Source: ChEMBL document CHEMBL4842359, “1,3-Diarylpyrazolyl-acylsulfonamides as Potent Anti-tuberculosis Agents Targeting Cell Wall Biosynthesis in Mycobacterium tuberculosis” (J Med Chem, 2021)
≈ marks a conversion by molar mass, not a printed value.

How the values were obtained:
[1] = Metabolic stability in rat liver microsomes assessed as compound remaining at 1 uM by LC-MS/MS analysis; type: ADME, Microsome; settings: for Stabilty: microsomes, 1 µM
[2] = Dru metabolism in iv dosed mouse assessed as metabolite in feces; type: ADME, organism-based; settings: in vivo
[3] = AUC (0 to t) in iv dosed C57BL/6 mouse measured up to 24 hrs by LC-MS/MS analysis; type: ADME, organism-based; design: time <=24; settings: in vivo
[4] = Dru metabolism in iv dosed mouse assessed as metabolite in urine; type: ADME, organism-based; settings: in vivo
[5] = Metabolic stability in mouse liver microsomes assessed as compound remaining at 1 uM by LC-MS/MS analysis; type: ADME, Microsome; settings: for Stabilty: microsomes, 1 µM
[6] = Unbound clearance in iv dosed C57BL/6 mouse measured up to 24 hrs by LC-MS/MS analysis; type: ADME, organism-based; settings: in vivo
[7] = Thermodynamic solubility of compound at pH 7.4 aqueous phosphate buffer
[8] = Lipophilicity, logD of the compound at pH 7.4 by HPLC-DAD analysis; type: physicochemical; settings: buffer
[9] = Dru metabolism in iv dosed mouse assessed as metabolite in blood; type: ADME, organism-based; settings: in vivo
[10] = Metabolic stability in human liver microsomes assessed as compound remaining at 1 uM by LC-MS/MS analysis; type: ADME, Microsome; settings: for Stabilty: microsomes, 1 µM
[11] = Volume of distribution in iv dosed C57BL/6 mouse measured up to 24 hrs by LC-MS/MS analysis; type: ADME, organism-based; settings: in vivo
[12] = test system: Mycobacterium tuberculosis; experiment: microbe, parasite or virus in culture; settings: S2371
Description: Antimycobacterial activity against drug-susceptible Mycobacterium tuberculosis S2371 by MIGIT method

[13] = test system: Mycobacterium tuberculosis; experiment: microbe, parasite or virus in culture; settings: H37RvMA
Description: Antimycobacterial activity against drug-susceptible Mycobacterium tuberculosis H37RvMA by MIGIT method

[14] = Terminal half life in iv dosed C57BL/6 mouse measured up to 24 hrs by LC-MS/MS analysis; type: ADME, organism-based; settings: in vivo
[15] = test system: Mycobacterium tuberculosis; experiment: microbe, parasite or virus in culture; settings: S1125
Description: Antimycobacterial activity against drug-susceptible Mycobacterium tuberculosis S1125 by MIGIT method

[16] = test system: Mycobacterium tuberculosis; experiment: microbe, parasite or virus in culture; settings: H37Rv, 336 h
Description: Antimycobacterial activity against Mycobacterium tuberculosis H37Rv in presence of middlebrook 7H9/glucose/BSA/tyloxapol medium measured after 14 days by bioluminescence reporter assay

[17] = test system: Mycobacterium tuberculosis; experiment: microbe, parasite or virus in culture; settings: H37RvMA, 336 h
Description: Antimycobacterial activity against Mycobacterium tuberculosis H37RvMA in presence of middlebrook 7H9/glucose/BSA/tyloxapol medium measured for 2 weeks by bioluminescence reporter assay

[18] = test system: Mycobacterium tuberculosis; experiment: animal or person; type: functional; settings: time 7 day
[19] = Plasma protein binding in human assessed as unbound fraction at 5 uM by LC-MS/MS analysis; type: ADME, cell-free
[20] = Toxicity in BALB/c mouse assessed as tolerability at 200 mg/kg, po once a day treatment initiated 7 days after infection for 12 consecutive days; type: organism-based; settings: in vivo, 168 h, time 7 day
[21] = Oral bioavailability in mouse; type: ADME, organism-based; settings: in vivo
[22] = test system: Mycobacterium tuberculosis; experiment: microbe, parasite or virus in culture; settings: 336 h
Description: Antimycobacterial activity against Mycobacterium tuberculosis delta cyd in presence of middlebrook 7H9/glucose/BSA/tyloxapol medium measured for 2 weeks by bioluminescence reporter assay

[23] = test system: HepG2; experiment: Cytotoxicity against human HepG2 cells under galactose containing medium; type: cell-based
[24] = test system: HepG2; experiment: Cytotoxicity against human HepG2 cells under glucose containing medium; type: cell-based
[25] = test system: Mycobacterium tuberculosis; type: functional; settings: H37Rv
[26] = liver microsomes, read-out: Stabilty

Compound | Stabilty [1] | AUCt [3] | Stabilty [5] | CL free [6] | solubility thermodynamic [7] | logD [8] | Stabilty [10] | Vd ([11]; C57BL/6, mouse, read-out: Vd) | other results
CS(=O)(=O)NC(=O)NCc1cn(-c2ccc(Cl)cc2)nc1-c1ccncc1 | 98% | 29 µmol·min/L | 91% | 4878 mL/min/kg | 150 µM (≈ 60.9 µg/mL) | 0.81 | 99% | – | Drug metabolism [2]: Metabolite_Notdetected; Drug metabolism [4]: Metabolite_Notdetected; Drug metabolism [9]: Metabolite_Notdetected
CS(=O)(=O)NC(=O)CCc1cn(-c2ccc(Br)cc2)nc1-c1ccncc1 | 94% | 15 µmol·min/L | 79% | > 20000 mL/min/kg | 185 µM (≈ 83.1 µg/mL) | 0.93 | 85% | 0.1 L/kg | MIC [12]: 30 µM (≈ 13.5 µg/mL); MIC [13]: ≤ 15 µM; beta t1/2 ([14]; mouse, 24 h): 1.3 h; MIC [15]: 15 µM (≈ 6.74 µg/mL)
CS(=O)(=O)NC(=O)CCc1cn(-c2ccc(Cl)cc2)nc1-c1ccc(Cl)cc1 | – | 4883 µmol·min/L | – | 111 mL/min/kg | 100 µM (≈ 43.8 µg/mL) | – | – | 1.2 L/kg | remaining at 1 µM [1, 26]: > 99%; MIC [16]: 4.7 µM (≈ 2.06 µg/mL); MIC [17]: 4 µM (≈ 1.75 µg/mL); MIC at 200 mg/kg ([18]; Mycobacterium tuberculosis, Erdman, in Mus musculus, po, 168 h): 9.1 µM (≈ 3.99 µg/mL); fIC50 ([18]; dose 200 mg/kg): 11 µM; remaining at 1 µM [5, 26]: 87%; fraction unbound at 5 µM [19]: 0.023; Activity [20]: Non-Toxic; bioavailability [21]: > 95%; half-life ([14]; C57BL/6, mouse, read-out: beta t1/2 (converted)): 3.6 h; logD ([8]; read-out: logD): 2; MIC [22]: 4 µM (≈ 1.75 µg/mL); remaining at 1 µM [10, 26]: 98%
CS(=O)(=O)NC(=O)CCc1cn(-c2ccc(Br)cc2)nc1-c1ccc(Cl)cc1 | 74% | 3527 µmol·min/L | 71% | 295 mL/min/kg | 170 µM (≈ 82.1 µg/mL) | 2.4 | 90% | – | Vd ([11]; mouse, 24 h): 0.2 L/kg; IC50 [23]: > 50 µM; IC50 [24]: > 50 µM; IC90 [25]: 6.25 µM
